For orientation: IC50 means the concentration at which inhibition is half-maximal. High values mean lower potency, low ones higher potency.

The values that follow come from publication PMC6151788, “Biological Evaluation and Molecular Docking of Protocatechuic Acid from Hibiscus sabdariffa L. as a Potent Urease Inhibitor by an ESI-MS Based Method” (Molecules : A Journal of Synthetic Chemistry and Natural …, 2017).

In test [1] the target is T1, Jack bean urease (JBU) (Canavalia ensiformis, UniProt P07374).
T1 construct: JBU-type III from Canavalia ensiformis
T1 sequence (P07374 whole entry, looked up): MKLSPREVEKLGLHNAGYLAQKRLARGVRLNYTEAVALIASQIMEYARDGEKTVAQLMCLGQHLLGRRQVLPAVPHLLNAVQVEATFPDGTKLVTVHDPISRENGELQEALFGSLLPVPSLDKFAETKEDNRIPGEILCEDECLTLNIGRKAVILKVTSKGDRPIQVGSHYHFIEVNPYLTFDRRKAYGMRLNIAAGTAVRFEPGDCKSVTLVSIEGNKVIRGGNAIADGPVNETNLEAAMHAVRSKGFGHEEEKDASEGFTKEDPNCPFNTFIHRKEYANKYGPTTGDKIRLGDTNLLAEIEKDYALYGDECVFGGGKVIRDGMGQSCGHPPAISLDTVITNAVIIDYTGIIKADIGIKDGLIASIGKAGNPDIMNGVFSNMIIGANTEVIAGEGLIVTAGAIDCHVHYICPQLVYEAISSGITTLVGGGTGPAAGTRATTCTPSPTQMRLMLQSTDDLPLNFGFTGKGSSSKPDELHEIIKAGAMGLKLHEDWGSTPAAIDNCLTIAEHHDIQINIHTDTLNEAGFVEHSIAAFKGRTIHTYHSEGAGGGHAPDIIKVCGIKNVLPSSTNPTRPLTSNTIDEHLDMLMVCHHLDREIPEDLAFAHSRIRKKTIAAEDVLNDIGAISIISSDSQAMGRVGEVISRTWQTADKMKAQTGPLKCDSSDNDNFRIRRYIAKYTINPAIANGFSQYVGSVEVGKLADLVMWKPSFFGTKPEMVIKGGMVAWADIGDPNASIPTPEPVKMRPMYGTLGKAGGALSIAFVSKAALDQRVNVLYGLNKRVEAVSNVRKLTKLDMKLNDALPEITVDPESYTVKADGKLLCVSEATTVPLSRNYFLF
In words: ESI-MS urea depletion assay with purchased jack bean urease; standard inhibitor. The class given is biochemical.

Test [2] addresses T1, Jack bean urease (JBU). In words: ESI-MS urea depletion assay with purchased jack bean urease. The class given is biochemical.

`CC(=O)NO` [AHA, acetohydroxamic acid] returned an IC50 on Jack bean urease (JBU) [1] of 3.2 µM. Consider `O=C(O)c1ccc(O)c(O)c1` [PCA, 3,4-dihydroxybenzoic acid], for which, at Jack bean urease (JBU) [2], the IC50 came to 1.7 µM.
